Each compound was assayed on Lasiodiplodia theobromae (assay: Antifungal activity against Lasiodiplodia theobromae OCS71 assessed as inhibition of mycelial growth at 100 ug/ml after 4 days by fungicide disk assay). Details: 96 h.
Format: functional
With `COC1=CC(=O)C(C)=C2C[C@H](C)OC=C12` the inhibition at 100 µg/mL was 69%.
`CCOC1O[C@@H](C)Cc2c(C)c(O)cc(OC)c21` (some centres undefined) gave an inhibition at 100 µg/mL of 74%.
For `COc1cc(O)c(C)c2c1[C@@H](OC)O[C@@H](C)C2`, the inhibition at 100 µg/mL was 76%.
For `COc1cc(O)c(C)c2c1CO[C@@H](C)C2`, the inhibition at 100 µg/mL was < 10%.

From ChEMBL document CHEMBL1151242, “A new antifungal metabolite from Penicillium expansum” (2004)
